Source: ChEMBL document CHEMBL1135566, “Synthesis of a novel fluorescent probe for estrogen receptor” (Bioorg Med Chem Lett, 2002)

Biological target: T1, Estrogen receptor (Homo sapiens, UniProt P03372)
T1 sequence (P03372 whole entry): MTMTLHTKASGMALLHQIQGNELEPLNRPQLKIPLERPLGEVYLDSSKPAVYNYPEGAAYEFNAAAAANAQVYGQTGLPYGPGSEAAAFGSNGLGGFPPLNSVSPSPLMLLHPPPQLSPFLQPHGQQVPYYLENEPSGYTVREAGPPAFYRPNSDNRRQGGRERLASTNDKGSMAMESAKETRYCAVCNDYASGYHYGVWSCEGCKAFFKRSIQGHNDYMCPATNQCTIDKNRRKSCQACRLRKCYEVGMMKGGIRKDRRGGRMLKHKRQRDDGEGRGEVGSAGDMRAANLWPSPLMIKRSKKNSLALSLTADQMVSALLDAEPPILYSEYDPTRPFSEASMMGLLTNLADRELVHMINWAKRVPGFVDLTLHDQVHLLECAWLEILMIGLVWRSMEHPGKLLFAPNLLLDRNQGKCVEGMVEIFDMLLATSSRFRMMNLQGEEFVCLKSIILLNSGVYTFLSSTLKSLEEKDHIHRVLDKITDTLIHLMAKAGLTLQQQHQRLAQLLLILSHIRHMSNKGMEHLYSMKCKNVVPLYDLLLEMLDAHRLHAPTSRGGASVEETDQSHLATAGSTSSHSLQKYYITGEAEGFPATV
Assay: Binding constant for Estrogen receptor alpha

Kd: 5.8 nM
Compound: CC/C(=C(/CC)c1ccc(OCCCC(=O)NCc2ccc(-c3c4ccc(=O)cc-4oc4cc(O)ccc34)c(C(=O)O)c2)cc1)c1ccc(O)cc1
